Laboratory results published in US7294638B2, “Treatment of ADHD” (H. Lundbeck A/S, priority 2001, dated 2007).

Assays:
dopamine D4 receptors = target: T1, dopamine D4 receptors (Homo sapiens, UniProt P21917); details: data in WO 98/28293; cited from earlier work
T1 sequence (P21917 1-419): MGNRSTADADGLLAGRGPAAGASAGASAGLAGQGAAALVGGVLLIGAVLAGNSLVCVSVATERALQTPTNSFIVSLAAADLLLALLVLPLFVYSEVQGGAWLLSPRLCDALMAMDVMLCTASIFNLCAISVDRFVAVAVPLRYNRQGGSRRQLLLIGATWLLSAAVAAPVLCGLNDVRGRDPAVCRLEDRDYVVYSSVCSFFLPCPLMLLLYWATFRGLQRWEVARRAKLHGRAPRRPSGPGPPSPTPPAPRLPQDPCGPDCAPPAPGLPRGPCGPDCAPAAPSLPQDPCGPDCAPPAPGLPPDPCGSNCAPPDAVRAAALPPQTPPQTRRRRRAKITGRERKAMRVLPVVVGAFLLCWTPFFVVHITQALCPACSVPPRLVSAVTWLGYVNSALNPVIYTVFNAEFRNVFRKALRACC

DAT knock-out (KO) mice [1] = details: Gainetdinov et al. Science 1999; cited from earlier work
DAT knock-out (KO) mice [2] = assay: DAT-KO mice model of ADHD (hyperactivity); assay type: in vivo; details: animal model of ADHD
Description: A very useful animal model of ADHD is the DAT knock-out (KO) mice (Gainetdinov et al. Science 1999, 283, 397-401).
The compound, (S)-(+)-3-[1-[2-(1-acetyl-2,3-dihydro-1H-indol-3-yl)ethyl]-1,2,3,6-tetrahydropyridin-4-yl]-6-chloro-1H-indole, has been tested in the DAT-KO mice, an animal model which have many behaviour patterns and responses to psychostimulants in common with individuals with ADHD (Gainetdinov et al. Science 1999, 283, 397-401).

[3] = clinical; Barrickman et al. 1991; cited from earlier work

CC(=O)N1CC(CCN2CC=C(c3c[nH]c4cc(Cl)ccc34)CC2)c2ccccc21 (racemic) [3-[1-[2-(1-acetyl-2,3-dihydro-1H-indol-3-yl)ethyl]-1,2,3,6-tetrahydropyridin-4-yl]-6-chloro-1H-indole]
dopamine D4 ligand potency (dopamine D4 receptors): potent dopamine D4 ligand

COC(=O)C(c1ccccc1)C1CCCCN1 (stereo not drawn) [methylphenidate]
reversal of hyperactivity in DAT-KO mice (DAT knock-out (KO) mice [1]): can be reversed

c1ccc2nc(N3CCNCC3)ccc2c1 [quipazine]
reversal of hyperactivity in DAT-KO mice (DAT knock-out (KO) mice [1]): counteract the hyperactivity

N[C@@H](Cc1c[nH]c2ccccc12)C(=O)O [L-tryptophan]
reversal of hyperactivity in DAT-KO mice (DAT knock-out (KO) mice [1]): counteract the hyperactivity

CC(=O)N1C[C@@H](CCN2CC=C(c3c[nH]c4cc(Cl)ccc34)CC2)c2ccccc21 [(S)-(+)-3-[1-[2-(1-acetyl-2,3-dihydro-1H-indol-3-yl)ethyl]-1,2,3,6-tetrahydropyridin-4-yl]-6-chloro-1H-indole]
effect in the DAT-KO mice model (DAT knock-out (KO) mice [2]): have effect in this model

N[C@@H](Cc1c[nH]c2ccc(O)cc12)C(=O)O [5-hydroxytryptophan]
reversal of hyperactivity in DAT-KO mice (DAT knock-out (KO) mice [1]): counteract the hyperactivity

CC(N)Cc1ccccc1 (stereo not drawn) [amphetamine]
reversal of hyperactivity in DAT-KO mice (DAT knock-out (KO) mice [1]): can be reversed

CNCCC(Oc1ccc(C(F)(F)F)cc1)c1ccccc1 (stereo not drawn) [fluoxetine]
reversal of hyperactivity in DAT-KO mice (DAT knock-out (KO) mice [1]): counteract the hyperactivity | reducing symptoms of ADHD [3]: effective in reducing symptoms of ADHD
